Laboratory results as given in PMC11574045, “A cofactor-induced repressive type of transcription factor condensation can be induced by synthetic peptides to suppress tumorigenesis” (The EMBO Journal, 2024).
Ends that are not written are not given here.

Test system: HGC-27 cells
Assay: Live-cell imaging of FAM-GLUP cellular entry
Format: cell-based, human
Conditions: FAM-GLUP 10 μg/ml (5 μM), HGC-27 live cells
Method: To confirm cellular entry of GLUP, we performed immunostaining of live cells treated with a fluorescein-labeled version of the peptide (FAM-GLUP). […] We then examined the potential effect of GLUP on TEAD4-mediated perturbation of DNA conformation.
(A) Representative live-cell images of HGC-27 cells treated with FAM (a fluorescent moiety)-labeled GLUP for indicated periods of time. FAM-GLUP: 10 μg/ml (5 μM). Scale bar, 10 μm. (B) Representative DAPI staining images of DNA showing its organization and appearance in the presence or absence of TEAD4 and GLUP as indicated. GLUP: 1 μg/ml (0.5 μM). Scale bar, 100 nm. (C) Representative N-SIM images of chromatin in GLUP-treated cells stained with DAPI. GLUP, 1 μg/ml (0.5 μM). Scale bar, 100 nm. (D) Representative images showing co-localization of GFP-TEAD4 with H3K27me3 in HEK293FT cells treated with GLUP together with 1,6-Hex. Scale bar, 1 μm. (E) Average enrichment profiles of H3K27me3 in GLUP-treated WT or TEAD4KO HGC-27 cells, stratified by gene length (three biological replicates, n = 3). Normalization of coverage using RPKM was performed over the genes and flanking region 1 kb in length. GLUP: 10 μg/ml (5 μM). […] The interval scale was 10 in both cases. See also Appendix Fig. S6. Source data are available online for this figure.

## RRVCVHFHFSLSLR-NH2 (C-terminus assumed) [glup]
30 min
  Cellular localisation: in the cytoplasm but outside of the nucleus
80 min
  Cellular localisation: throughout in the cell including the nucleus
